Assays:
Format in all cases: physicochemical, human
[1] = LC/MS of blood plasma sample: time from blood collection to centrifugation (Table D); settings: for Increase or decrease: detection intensity, after 12 hours vs 15 minutes; for Rate of increase or decrease (second value, decrease) / Rate of increase or decrease (first value, increase): different from individual to individual, relative to 1 at 15 minutes, collection to centrifugation; for Rate of increase or decrease (second value, decrease): individuals with decrease; for Rate of increase or decrease (first value, increase): individuals with increase
Outline: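 Detection intensities are expressed relative to samples centrifuged 15 min after collection (=1), measured by electrospray LC/MS in MRM mode (Discovery HS F5-3, 40 °C, formic acid water/acetonitrile gradient at 0.25 mL/min). EDTA blood from a healthy donor was held at 4 °C, centrifuged at 4 °C, 3000 rpm, 15 min, and plasma frozen.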

[2] = LC/MS of serum sample: number of times of freezing and thawing (Table M); parameters: key to Rate of increase or decrease: detection intensity relative to 1 at 2 freeze-thaw cycles; settings: for Rate of increase or decrease: 4 times of freezing and thawing, detection intensity relative to 1 at 2 times; for Number of times when compound is affected / Increase or decrease: serum sample, LC/MS; for Number of times when compound is affected: detection intensity changed by 30% or more vs 2 times of freezing and thawing; for Increase or decrease: detection intensity vs 2 times of freezing and thawing
Outline: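 Values are detection intensities relative to serum thawed twice, versus 4, 6 or 10 freeze-thaw cycles. Serum came from blood spun at room temperature, 3500 rpm for 5 minutes. Analysis: electrospray LC/MS in MRM mode, Discovery HS F5-3 column, 40° C, 0.1% formic acid in water and acetonitrile.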

[3] = LC/MS of serum sample: time from blood collection to centrifugation (Table J); settings: for Increase or decrease / Time when compound is affected: serum sample, LC/MS; for Increase or decrease: detection intensity vs 15 minutes from blood collection to centrifugation; for Time when compound is affected: time from blood collection to centrifugation, detection intensity changed by 30% or more vs 15 minutes
Outline: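 Detection intensities are expressed relative to 1 for samples centrifuged 15 min after blood collection; centrifugation was at room temperature, 3500 rpm, 5 min. Frozen serum was run by electrospray LC-MS in MRM mode, with 0.1% formic acid water/acetonitrile at 0.25 mL/min on a 40 °C F5 column.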

[4] = LC/MS of serum sample: time from centrifugation to isolation (Table K); parameters: key to Rate of increase or decrease: detection intensity relative to the 30-minute value set as 1; settings: for Increase or decrease / Time when compound is affected: serum sample, LC/MS; for Increase or decrease: detection intensity vs 30 minutes from centrifugation to isolation; for Time when compound is affected: time from centrifugation to isolation, detection intensity changed by 30% or more vs 30 minutes
Experimental: After standing, the blood sample was subjected to centrifugation under a condition of room temperature, 3500 rpm, and 5 minutes. […] After centrifugation, the blood-collecting vessel was left to stand at room temperature, and the serum was isolated during this time. Here, in order to investigate how the detection intensity of molecules contained in the sample was affected in cases where the time during which the blood-collecting vessel was left at room temperature was set to 1 hour and 6 hours as compared to that in a case where the time was set to 30 minutes, preparations were performed under the respective conditions of 30 minutes, 1 hour, and 6 hours. The obtained serum sample was frozen and stored. Here, in order to investigate how the detection intensity of molecules contained in the sample was affected in cases where freezing and thawing was performed 4 times, 6 times, and 10 times after freezing as compared to that in a case where freezing and thawing was performed 2 times after freezing, freezing and thawing was performed under the respective conditions of 2, 4, 6, and 10 times.
Frozen blood plasma samples and serum samples were subjected to GC/MS or LC/MS. In GC/MS, the blood plasma samples and serum samples were subjected to methoxymation and trimethylsilylation and then introduced to GC-MS.
Analysis column: Discovery HS F5-3 (inner diameter of 2.1 mm, length of 150 mm, film thickness of 3 μm) (Sigma-Aldrich)
Column temperature: 40° C.
(A) 0.1% formic acid (dissolved in water)
(B) 0.1% formic acid (dissolved in acetonitrile)
Flow velocity: 0.25 mL/min
Ionization method: electrospray
Temperature: • Desolvation Line (DL) temperature: 250° C. • Heat block temperature: 400° C. • Interface temperature: 300° C.
Gas flow rate: • Nebulizer gas flow rate: 3.0 L/min • Drying gas flow rate: 10.0 L/min • Heating gas flow rate: 10.0 L/min
Mode: multiple reaction monitoring (MRM)
The rate of increase or decrease in Table K is the value of detection intensity relative to 1 that is the detection intensity in a case where the time from centrifugation to isolation is set to 30 minutes.

[5] = GC/MS of blood plasma sample: time from blood collection to cooling of blood (Table B); parameters: key to Rate of increase or decrease / Rate of increase or decrease (first value, increase): detection intensity relative to 1 at cooling time ≤1 min; settings: for Increase or decrease: detection intensity, blood collection to cooling 5 minutes or more vs 1 minute or less; for Rate of increase or decrease (second value, decrease) / Rate of increase or decrease (first value, increase): different from individual to individual, relative to 1 at 1 minute or less, collection to cooling 5 minutes; for Rate of increase or decrease (second value, decrease): individuals with decrease; for Rate of increase or decrease (first value, increase): individuals with increase
Outline: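 Blood drawn at room temperature into EDTA tubes, mixed, then cooled at 4° C. within 1 minute or less versus 5 minutes or more before centrifugation (4° C., 3000 rpm, 15 minutes). Plasma was frozen, methoxymated and trimethylsilylated, and analysed by EI GC/MS in MRM mode. Values are detection intensity relative to the ≤1 minute condition.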

[6] = GC/MS of blood plasma sample: number of times of freezing and thawing (Table C); settings: for Rate of increase or decrease: detection intensity relative to 1 at 2 times; for Increase or decrease: detection intensity
Outline: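 Values express detection intensity as a ratio to the 2-cycle freeze-thaw sample (=1), compared with 4, 6 and 10 cycles. Healthy-donor EDTA plasma, cooled at ≤1 min or ≥5 min, spun at 4 °C, 3000 rpm, 15 min. Derivatised by methoxymation/trimethylsilylation; GC-MS/MS in MRM mode with electron ionization.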

[7] = LC/MS of blood plasma sample: number of times of freezing and thawing (Table F); settings: for Rate of increase or decrease: detection intensity relative to 1 at 2 times; for Increase or decrease: detection intensity
Outline: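 Values are detection intensities normalised to 1 for plasma thawed twice, compared against 4, 6 and 10 freeze-thaw cycles. Measured by electrospray LC/MS in MRM mode, formic acid water/acetonitrile mobile phase, column at 40° C. Plasma came from EDTA blood, cooled to 4° C and spun at 3000 rpm for 15 min.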

[8] = GC/MS of blood plasma sample: time from blood collection to centrifugation (Table A); settings: for Increase or decrease: detection intensity, blood collection to centrifugation, after 4 hours vs 15 minutes; for Rate of increase or decrease (second value, decrease) / Rate of increase or decrease (first value, increase): different from individual to individual, relative to 1 at 15 minutes, collection to centrifugation, after 4 hours; for Rate of increase or decrease (second value, decrease): individuals with decrease; for Rate of increase or decrease (first value, increase): individuals with increase
Outline: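 Read-out is MRM detection intensity by electron-ionization GC/MS on a BPX5 column after methoxymation and trimethylsilylation, expressed relative to a 15-minute collection-to-centrifugation interval. Plasma was prepared from EDTA blood held at 4° C and spun at 4° C, 3000 rpm for 15 minutes, then frozen.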

[9] = GC/MS of serum sample: number of times of freezing and thawing (Table I); parameters: key to Rate of increase or decrease / Rate of increase or decrease (first value, increase): detection intensity relative to 2 freeze-thaw cycles = 1; settings: serum, GC/MS
Outline: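 Detection intensities are ratios to the value after two freeze–thaw cycles, which is set as 1, compared against 4, 6 and 10 cycles. Analysis used methoxymation and trimethylsilylation derivatization, then GC/MS with EI ionization and multiple reaction monitoring on a BPX5 column. Serum came from blood held at room temperature and spun at 3500 rpm for 5 min.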

[10] = GC/MS of serum sample: time from blood collection to centrifugation (Table G); settings: blood collection to centrifugation
Outline: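 Values express detection intensity as a ratio to the sample centrifuged 15 minutes after blood collection (taken as 1). Serum was derivatized by methoxymation and trimethylsilylation, then analysed by electron-ionization GC/MS using multiple reaction monitoring on a BPX5 column ramped from 60 to 330° C.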

[11] = GC/MS of serum sample: time from centrifugation to isolation (Table H); parameters: key to Rate of increase or decrease / Rate of increase or decrease (first value, increase): detection intensity relative to 1 at 30 min centrifugation-to-isolation
Outline: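 Values are GC/MS (EI, MRM) detection intensities of methoxymated/trimethylsilylated serum, normalised to 1 for the 30-min sample. Serum was isolated 30 min, 1 h or 6 h after room-temperature centrifugation (3500 rpm, 5 min) of blood.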

[12] = blood collection to centrifugation
[13] = after 4 hours from blood collection to centrifugation, detection intensity relative to 1 at 15 minutes
[14] = freezing and thawing 6 times vs 2 times
[15] = after 1 hour, relative to 1 at 30 minutes, different from individual to individual, second value (decrease)
[16] = freezing and thawing 10 times vs 2 times

Structure (SMILES)	Increase or decrease [1, 12]	Rate of increase or decrease (second value, decrease) ([1]; after 12 hours)	Rate of increase or decrease (first value, increase) ([1]; after 12 hours)	Rate of increase or decrease [2]	Number of times when compound is affected [2] [times]	Increase or decrease [2]	Increase or decrease [3]	Time when compound is affected [3]	Increase or decrease [4]	Time when compound is affected [4]	Rate of increase or decrease [3, 13]	Increase or decrease [5]	Rate of increase or decrease (second value, decrease) [5]	Rate of increase or decrease (first value, increase) [5]	Increase or decrease [8]	Rate of increase or decrease (second value, decrease) [8]	Rate of increase or decrease (first value, increase) [8]	Rate of increase or decrease [4, 15]	other results
NCCC(=O)N[C@@H](Cc1cnc[nH]1)C(=O)O [Carnosine, carnosine]	–	–	–	0.59	4	Decrease	Increase	After 4 hours	Different from individual	After 1 hour hours	2.83	–	–	–	–	–	–	0.56	Rate of increase or decrease ([4]; after 1 hour, relative to 1 at 30 minutes, different from individual to individual, first value (increase)): 1.41
N[C@@H](CSSC[C@H](N)C(=O)O)C(=O)O [Cystine]	Decrease	–	–	1.56	4	Increase	–	–	Decrease	After 1 hour hours	–	–	–	–	–	–	–	–	Rate of increase or decrease ([1]; detection intensity relative to 1 at 15 minutes, blood collection to centrifugation, after 12 hours): 0.45; Rate of increase or decrease ([7]; freezing and thawing 10 times): 0.54; Increase or decrease [7, 16]: Decrease; Rate of increase or decrease ([4]; after 1 hour from centrifugation to isolation, detection intensity relative to 1 at 30 minutes): 0.67
Nc1nc2c(ncn2[C@@H]2O[C@@H]3COP(=O)(O)O[C@H]3[C@H]2O)c(=O)[nH]1 [Guanosine 3′,5′-cyclic monophosphate, guanosine 3′,5′-cyclic monophosphate]	–	–	–	1.47	4	Increase	Different from individual	After 4 hours	Different from individual	After 1 hour hours	–	–	–	–	–	–	–	0.46	Rate of increase or decrease ([3]; after 4 hours, relative to 1 at 15 minutes, different from individual to individual, first value (increase)): 3.62; Rate of increase or decrease ([3]; after 4 hours, relative to 1 at 15 minutes, different from individual to individual, second value (decrease)): 0.58
O=C(O)/C=C\C(=O)O [Maleic acid]	–	–	–	–	–	–	–	–	–	–	–	Different from individual	0.54	1.38	Different from individual	0.47	1.75	–	Rate of increase or decrease ([6]; freezing and thawing 10 times): 2.12; Increase or decrease [6, 16]: Increase; Rate of increase or decrease ([9]; detection intensity relative to 1 at 2 times, freezing and thawing 4 times): 2.62; Increase or decrease ([9]; detection intensity, freezing and thawing 4 times vs 2 times): Increase; Rate of increase or decrease ([10]; detection intensity relative to 1 at 15 minutes, after 4 hours): 1.65; Increase or decrease ([10]; detection intensity, after 4 hours vs 15 minutes): Increase; Rate of increase or decrease ([11]; detection intensity relative to 1 at 30 minutes, after 1 hour): 1.43; Increase or decrease ([11]; detection intensity, after 1 hour vs 30 minutes): Increase

Second part, led by results:

Increase or decrease [1, 12]	Rate of increase or decrease (second value, decrease) ([1]; after 12 hours)	Rate of increase or decrease (first value, increase) ([1]; after 12 hours)	Rate of increase or decrease [2]	Number of times when compound is affected [2] [times]	Increase or decrease [2]	Increase or decrease [3]	Time when compound is affected [3]	Increase or decrease [4]	Time when compound is affected [4]	Rate of increase or decrease [3, 13]	Increase or decrease [5]	Rate of increase or decrease (second value, decrease) [5]	Rate of increase or decrease (first value, increase) [5]	Increase or decrease [8]	Rate of increase or decrease (second value, decrease) [8]	Rate of increase or decrease (first value, increase) [8]	Rate of increase or decrease [4, 15]	Structure (SMILES)	other results
Different from individual	0.54	1.36	1.55	4	Increase	Increase	After 6 hours	Increase	After 6 hours	–	–	–	–	–	–	–	–	C[S+]([O-])CC[C@H](N)C(=O)O (stereo partly drawn) [Methionine sulfoxide]	Rate of increase or decrease ([3]; after 6 hours from blood collection to centrifugation, detection intensity relative to 1 at 15 minutes): 1.65; Rate of increase or decrease ([4]; after 6 hours from centrifugation to isolation, detection intensity relative to 1 at 30 minutes): 1.77
Different from individual	0.60	1.67	0.68	4	Decrease	Increase	After 4 hours	–	–	1.42	Different from individual	0.64	2.62	Different from individual	0.48	1.48	–	O=c1ccn([C@@H]2O[C@H](CO)[C@@H](O)[C@H]2O)c(=O)[nH]1 [Uridine]	Rate of increase or decrease ([6]; freezing and thawing 6 times): 0.69; Increase or decrease [6, 14]: Decrease; Rate of increase or decrease ([7]; freezing and thawing 6 times): 1.31; Increase or decrease [7, 14]: Increase

— US20220146526A1, “METHOD FOR EVALUATING SAMPLE, ANALYSIS METHOD, METHOD FOR DETECTING DEGRADED SAMPLE, MARKER FOR DETECTING DEGRADED BLOOD PLASMA SAMPLE, AND MARKER FOR DETECTING DEGRADED SERUM SAMPLE” (SHIMADZU CORPORATION, priority 2019, published 2022)
